Data set [1] is described as follows: Permeability of the compound at pH 7.4 after 30 mins by PAMPA. The note with it: pH 7.4, 0.5 h. The class given is ADME. (In general: In PAMPA a lipid-coated filter parts donor from acceptor wells.)
Data set [2] can be described thus: Cytotoxicity against mouse HT22 cells assessed as cell viability at 10 uM relative to control. The note with it: read-out: Activity. The class given is cell-based, HT-22.
Data set [3] is filed under the species Mus musculus. The following applies: ICR, 25 mg/kg.
Description: (§1) Antialzheimer activity in human amyloid beta (3 to 40) induced acute ICR mouse Alzheimer's disease mouse model assessed as inhibition of amyloid beta (N3pE to 40) formation in brain at 25 mg/kg, icv administered via deep cortical/hippocampal tissue measured next day by sandwich ELISA relative to control
The target of the next data set is hERG (KCNH2) (Homo sapiens, UniProt Q12809). Description: Inhibition of human ERG at 10 uM relative to control.
Chain of hERG (KCNH2) (Q12809 whole entry): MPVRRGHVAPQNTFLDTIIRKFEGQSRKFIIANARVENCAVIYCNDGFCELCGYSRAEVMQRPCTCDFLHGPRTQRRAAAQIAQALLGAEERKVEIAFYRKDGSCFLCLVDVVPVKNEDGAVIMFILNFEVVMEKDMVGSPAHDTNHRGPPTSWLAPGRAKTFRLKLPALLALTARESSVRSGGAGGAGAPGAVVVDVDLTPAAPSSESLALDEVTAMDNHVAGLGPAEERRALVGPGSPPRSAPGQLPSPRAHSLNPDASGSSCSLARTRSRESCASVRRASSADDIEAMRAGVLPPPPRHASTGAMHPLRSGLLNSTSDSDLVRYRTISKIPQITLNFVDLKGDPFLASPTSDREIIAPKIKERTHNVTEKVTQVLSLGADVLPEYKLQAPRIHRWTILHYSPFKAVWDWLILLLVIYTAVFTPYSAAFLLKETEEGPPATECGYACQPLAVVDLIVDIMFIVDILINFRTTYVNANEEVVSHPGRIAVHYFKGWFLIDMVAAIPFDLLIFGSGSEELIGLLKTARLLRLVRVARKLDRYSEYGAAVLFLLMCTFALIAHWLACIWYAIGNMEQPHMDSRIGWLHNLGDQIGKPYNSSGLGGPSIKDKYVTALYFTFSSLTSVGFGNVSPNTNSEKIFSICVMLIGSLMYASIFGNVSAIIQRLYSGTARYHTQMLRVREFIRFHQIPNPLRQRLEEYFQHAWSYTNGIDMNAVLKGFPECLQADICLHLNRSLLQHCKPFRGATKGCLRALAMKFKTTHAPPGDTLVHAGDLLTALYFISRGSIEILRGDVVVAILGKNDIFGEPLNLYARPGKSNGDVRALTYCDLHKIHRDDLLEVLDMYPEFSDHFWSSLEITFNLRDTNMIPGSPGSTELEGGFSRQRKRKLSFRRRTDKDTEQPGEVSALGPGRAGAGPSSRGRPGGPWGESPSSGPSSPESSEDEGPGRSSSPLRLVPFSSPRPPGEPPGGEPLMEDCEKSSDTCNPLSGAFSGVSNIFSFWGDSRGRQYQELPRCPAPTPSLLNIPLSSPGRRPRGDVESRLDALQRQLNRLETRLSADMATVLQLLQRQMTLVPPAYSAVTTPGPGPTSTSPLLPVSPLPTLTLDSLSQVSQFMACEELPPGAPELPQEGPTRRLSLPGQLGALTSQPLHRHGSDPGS
For data set [4], the species on record is Mus musculus. In words: animal or person. The following applies: ICR, central, read-out: INH.
Description: as §1

The source made the active and inactive calls. The rule behind the calls is not given here.

We go through 20 molecules from ChEMBL document CHEMBL4184240, “Potent human glutaminyl cyclase inhibitors as potential anti-Alzheimer's agents: Structure-activity relationship study of Arg-mimetic region” (Bioorg Med Chem, 2018).

The term inhibition denotes the percentage by which the read-out fell short of the control. As for `COc1cc(NC(=S)NCCCn2cncc2C)ccc1OCCCCc1ccnc(NCCO)c1`, the “log(permeability)” value in data set [1] is -10. In addition, in data set [2], the viability at 10 µM is 100%. In addition, the inhibition result in the data set filed under Mus musculus [3] was “inactive”. The molecule also gave an inhibition at 10 µM against hERG (KCNH2) of 44.4%.
As for `COc1cc(NC(=S)NCCCn2cncc2C)ccc1OCCN1CCN(CCOCCN)CC1`, the viability at 10 µM in data set [2] came to 51.1%.
For `COc1cc(NC(=S)NCCCn2cncc2C)ccc1OCCC(=O)N1CCNCC1`, the “log(permeability)” value in data set [1] is recorded as -5.7. The viability at 10 µM in data set [2] was 100%. On hERG (KCNH2), this molecule came in with an inhibition at 10 µM of 1.7%. Besides, the inhibition in vivo at 25 mg/kg in the data set filed under Mus musculus [4] is 18.7%.
As for `COc1cc(NC(=S)NCCCn2cncc2C)ccc1OCCCCN1CCN(CCO)CC1`, the “log(permeability)” value in data set [1] was -8.7. The viability at 10 µM in data set [2] is 100%.
Turning to `COc1cc(NC(=S)NCCCn2cncc2C)ccc1OCCN1CCN(CCO)CC1`, the “log(permeability)” value in data set [1] is -6. In addition, the viability at 10 µM in data set [2] was 100%. Moreover, the inhibition result in the data set listed under Mus musculus [3] is “inactive”. At hERG (KCNH2), this molecule showed an inhibition at 10 µM of 9.7%.
With `COc1cc(NC(=S)NCCCn2cncc2C)ccc1OCCC1CCN(CCO)CC1`, the “log(permeability)” value in data set [1] is recorded as -6.7. Further, in data set [2], the viability at 10 µM stood at 100%. This molecule also registered an inhibition at 10 µM against hERG (KCNH2) of 8.2%. For the same molecule, the inhibition in vivo at 25 mg/kg in the data set filed under Mus musculus [4] was found to be 0.19%.
For `COc1cc(NC(=S)NCCCn2cncc2C)ccc1Oc1ccc(C2=CCNCC2)cc1` the same measures were -4.9, 100%, 52.8% and 16.1%.
Regarding `COc1cc(NC(=S)NCCCn2cncc2C)ccc1OCCCCc1ccnc(NCCN)c1`, the “log(permeability)” value in data set [1] is recorded as -10. The viability at 10 µM in data set [2] stood at 100%. In addition, the inhibition entry in the data set listed under Mus musculus [3] is “inactive”. This molecule also showed an inhibition at 10 µM against hERG (KCNH2) of 31.5%.
As for `COc1cc(NC(=S)NCCCn2cncc2C)ccc1OCCCN1CCN(CCN)CC1`, the “log(permeability)” value in data set [1] was -10. Also, in data set [2], the viability at 10 µM turned out to be 100%. Moreover, the inhibition result in the data set listed under Mus musculus [3] is “inactive”. This molecule also had an inhibition at 10 µM against hERG (KCNH2) of 28.9%.
Consider `COc1cc(NC(=S)NCCCn2cncc2C)ccc1OCC(=O)N1CCN(CCN)CC1`, for which the “log(permeability)” value in data set [1] is recorded as -10. The viability at 10 µM in data set [2] is 100%. Moreover, in the data set listed under Mus musculus [3], the inhibition entry is “inactive”. Further, the inhibition at 10 µM at hERG (KCNH2) is 14%.
Turning to `COc1cc(NC(=S)NCCCn2cncc2C)ccc1Oc1ccc(N2CCNCC2)cc1`, in data set [1], the “log(permeability)” value was -5.6. Further, in data set [2], the viability at 10 µM turned out to be 100%. Also, the inhibition entry in the data set listed under Mus musculus [3] was “inactive”. At hERG (KCNH2), this molecule registered an inhibition at 10 µM of 39.7%.
As to `COc1cc(NC(=S)NCCCn2cncc2C)ccc1OCc1ccc(C2CCNCC2)cc1`, the “log(permeability)” value in data set [1] is listed as -5.8. The viability at 10 µM in data set [2] turned out to be 100%. In addition, the inhibition at 10 µM against hERG (KCNH2) was found to be 40.1%. The inhibition in vivo at 25 mg/kg in the data set listed under Mus musculus [4] was determined as 30%.
Take `COc1cc(NC(=S)NCCCn2cncc2C)ccc1OCCN1CCN(CCN)CC1`: in data set [1], the “log(permeability)” value is reported as -5.7. The viability at 10 µM in data set [2] is 100%. Besides, the inhibition at 10 µM on hERG (KCNH2) was 2.5%. Moreover, the inhibition in vivo at 25 mg/kg in the data set listed under Mus musculus [4] stood at 5.43%.
In the case of `COc1cc(NC(=S)NCCCn2cncc2C)ccc1OCCN1CC(C)NC(C)C1` (stereo not given), in data set [1], the “log(permeability)” value is reported as -5.3. Further, the viability at 10 µM in data set [2] turned out to be 100%. The inhibition entry in the data set listed under Mus musculus [3] is “inactive”. This molecule gave an inhibition at 10 µM against hERG (KCNH2) of 2.5%.
For `COc1cc(NC(=S)NCCCn2cncc2C)ccc1OCCC(=O)NC1CCNCC1`, the “log(permeability)” value in data set [1] is -5.6. Besides, in data set [2], the viability at 10 µM is 100%. For the same molecule, at 10 µM the inhibition on hERG (KCNH2) was 5%. For the same molecule, the inhibition in vivo at 25 mg/kg in the data set listed under Mus musculus [4] was 13.5%.
As to `COc1cc(NC(=S)NCCCn2cncc2C)ccc1OCCN1CCNCC1C` (stereo not given), the “log(permeability)” value in data set [1] is -5.8. Further, in data set [2], the viability at 10 µM was determined as 100%. The inhibition at 10 µM at hERG (KCNH2) stood at 33.4%. In addition, the inhibition in vivo at 25 mg/kg in the data set filed under Mus musculus [4] stood at 3.01%.
As to `COc1cc(NC(=S)NCCCn2cncc2C)ccc1OCCCCN1CCN(CCN)CC1`, in data set [1], the “log(permeability)” value is reported as -10. Moreover, the viability at 10 µM in data set [2] stood at 100%. Further, the inhibition entry in the data set filed under Mus musculus [3] is “inactive”. On hERG (KCNH2), 10 µM produced 21.1% inhibition.
As to `COc1cc(NC(=S)NCCCn2cncc2C)ccc1OCCCC(=O)N1CCNCC1`, the “log(permeability)” value in data set [1] is listed as -5.7. Further, the viability at 10 µM in data set [2] is 100%. This molecule came in with an inhibition at 10 µM at hERG (KCNH2) of 1.9%. Also, in the data set listed under Mus musculus [4], the inhibition in vivo at 25 mg/kg amounted to 8.07%.
In the case of `COc1cc(NC(=S)NCCCn2cncc2C)ccc1Oc1ccc(C2CCNCC2)cc1`, in data set [1], the “log(permeability)” value was -5.6. Moreover, the viability at 10 µM in data set [2] worked out at 100%. Moreover, the inhibition entry in the data set listed under Mus musculus [3] was “inactive”. Besides, the inhibition at 10 µM against hERG (KCNH2) came to 72.8%.
`COc1cc(NC(=S)NCCCn2cncc2C)ccc1OCC(=O)NC1CCN(CCN)CC1`: the “log(permeability)” value in data set [1] is -6.4. Also, the viability at 10 µM in data set [2] is 100%. The inhibition entry in the data set filed under Mus musculus [3] is “inactive”. Testing at 10 µM at hERG (KCNH2) gave an inhibition of 17.8%.
